Results as given in US10280198B2, “Therapeutic agents for reducing parathyroid hormone levels” (KAI PHARMACEUTICALS, INC., priority 2009, dated 2019).
Entries after “also recorded” stand apart in the source; their conditions may differ.

Legend:
plasma PTH [1] = test: 1K1C rat model of acute renal insufficiency, plasma PTH after dosing; format: in vivo; details: 1K1C rats
From the text: A rat model of acute renal insufficiency (also referred to as the 1K1C model) was developed to simulate the pathology of SHPT associated with end stage renal disease. […] The development of this model allowed for the further characterization of described compounds in the context of a subject with renal dysfunction and elevated PTH. Typical baseline PTH levels in this model averaged ˜450 pg/mL.
The ensuing ischemia/reperfusion (I/R) damage to the remaining kidney results in significant necrosis and renal failure. Serum creatinine levels were elevated for over 24-48 hours following I/R insult (data not shown). […] By 48 hours post-I/R, plasma PTH levels were elevated to ˜450 pg/mL (˜5 fold increase) and in some instances reach as high as ˜1200 pg/mL. This reproducible increase in serum creatinine and PTH provided a robust model that mimics the physiology seen ESRD patients.
The protocol used in this study is as follows. Male Sprague Dawley rats were purchased from Charles River Laboratories (Hollister, Calif.; requested purchase weight 250-275 g). […] Animals were maintained in a temperature-controlled environment with a constant 12 hours light/12 hours dark cycle and free access to food and water at all times. All experimental procedures with animals were performed according to IACUC guidelines.
General anesthesia was induced and maintained by intraperitoneal (IP) injection of sodium pentobarbital (5.2%, 0.4 mL/rat). For animals that received 45 minutes of renal ischemia an additional IP injection of sodium pentobarbital (5.2%, 0.1 mL/rat) was given to maintain the anesthetic plane. Blood sampling for PTH measurements following administration of compounds in normal rats was done under continuous isoflurane anesthesia.
For model development studies, the left femoral vein was cannulated with a PE-10 tube for blood drawing. Both kidneys were exposed via a laparotomy. A right nephrectomy was performed after the right renal pedicle and ureter were ligated with double 2-0 silk sutures. After confirmation of non-bleeding in the right pedicle, the left renal artery was carefully dissected and clamped with a micro vascular clip to induce left renal global ischemia. Renal ischemia was confirmed by observation of a global white-grey color change (blanching). The abdominal incision was temporarily covered with gauze to help maintain the temperature of the abdominal organs. After 45 minutes, the designated period of ischemia, the clip was removed and left renal artery flow was considered restored upon observation of a global restoration of red color. The abdominal incision was closed in layers with 2-0 silk sutures. The animal was then recovered from anesthesia. Physiological parameters including body temperature (36-37.5° C.) and body weight were measured throughout the procedure. Body temperature was monitored and maintained using a heat pad rectal probe feedback system.
Approximately 48 hours after the 1K1C surgery (I/R injury), animals were dosed with various compounds to measure effects on plasma PTH and calcium. In most cases, test articles were administered by IV infusion (infusion time 5, 10 or 30 minutes) although in some studies compounds were administered by IV bolus or subcutaneous (SC) bolus injection. For drug administration and blood draws, animals were anesthetized with isoflurane.

plasma PTH [2] = test: In vivo PTH lowering after IV bolus in isoflurane-anesthetized normal Sprague Dawley rats; parameters: species or system rat; details: for PTH-lowering activity in normal rats: 0.5 mg/kg single IV administration
Procedure, shortened: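 Peptides were given as a 0.5 mg/kg IV bolus to normal Sprague Dawley rats kept under isoflurane throughout, with saline bolus controls.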

plasma histamine [3] = details: rat
Procedure: For the in vivo evaluation of histamine release, compounds were dosed in isoflurane-anesthetized normal rats at 2 mg/kg by IV bolus (administered over less than one minute). Plasma histamine was measured 5 minutes after compound administration (Cayman histamine EIA #589651).

plasma histamine [4] = details: rat, in vivo
plasma PTH [5] = test: Micropore-facilitated transdermal delivery, plasma PTH in rats; details: CD hairless rats, derma roller microporation, 10% solution in reservoir, FIG. 11
[6] = 3 mg/kg 30-minute IV infusion, FIG. 1

Row | SMILES | PTH-lowering activity (plasma PTH [1]; 1 mg/kg 30-minute IV infusion, over 24 hours, FIG. 9) | PTH-lowering activity in normal rats (plasma PTH [2]) | % PTH reduction of baseline at 1 hour post IV administration of 0.5 mg/kg compound (plasma PTH [2]; Table 2, isoflurane-anesthetized normal rats, 0.5 mg/kg IV, 1 hour) | 0.5 mg/kg IV bolus % PTH AUC of saline control (plasma PTH [2]; Table 2, normal rats, AUC 1-4 h) | Histamine response in vivo Fold change from pre-dose levels 5′ post injection 2 mg/kg IV bolus (plasma histamine [3]) | PTH reduction from baseline 16 hours after dosing (plasma PTH [1]; 1 mg/kg 30-minute IV infusion) | initial fall of PTH levels from baseline (plasma PTH [1]; 1 mg/kg 30-minute IV infusion) | initial drop of PTH, level as % of baseline (plasma PTH [1]; 1 mg/kg SC bolus) | duration of reduced plasma PTH levels (plasma PTH [1]; 1 mg/kg, SC bolus or 30-minute IV infusion (both routes)) | reduced PTH levels from baseline twenty-four hours after dosing (plasma PTH [1]; 1 mg/kg, either route (SC bolus or IV infusion)) | PTH-lowering efficacy and duration of action (plasma PTH [1]; [6]) | mean PTH reduction at the 24 hour time point (plasma PTH [1]; [6]) | duration of decreased PTH (plasma PTH [2]; 0.5 mg/kg IV bolus, normal rats, FIG. 5) | % PTH reduction of baseline at 1 hour post IV admin. of 0.5 mg/kg compound (plasma PTH [2]; Table 1, isoflurane-anesthetized normal rats, 0.5 mg/kg IV, 1 hour) | 0.5 mg/kg IV bolus % PTH AUC of saline control (plasma PTH [2]; Table 1, normal rats, PTH at 1, 2, 3, 4 h, AUCcmpd treated/AUCsaline control*100) | 0.5 mg/kg IV bolus % PTH AUC of saline control (plasma PTH [2]; Table 3, normal rats, AUC 1-4 h) | fold increase in histamine level relative to pre-dose (plasma histamine [4]) | histamine response after IV bolus (plasma histamine [4]; iv) | duration of PTH reduction from baseline (plasma PTH [5])
1 | CC(=O)N[C@H](CS)C(=O)N[C@H](C)C(=O)N[C@H](CCCNC(=N)N)C(=O)N[C@H](CCCNC(=N)N)C(=O)N[C@H](CCCNC(=N)N)C(=O)N[C@H](C)C(=O)N[C@H](CCCNC(=N)N)C(N)=O [SEQ ID NO: 26, Ac-carrrar-NH2] | activity that is equivalent to Ac-crrrrrr-NH2 | decreased PTH blood concentration to a non-detectable level for up to 4 hours after dosing; also recorded: very active | 0% | 1% | 1.0 fold |  |  |  |  |  |  |  |  |  |  |  |  |  | 
2 | CC(=O)N[C@H](CS)C(=O)N[C@H](CCCNC(=N)N)C(=O)N[C@H](CCCNC(=N)N)C(=O)N[C@H](CCCNC(=N)N)C(=O)N[C@H](CCCNC(=N)N)C(=O)N[C@H](CCCNC(=N)N)C(=O)N[C@H](CCCNC(=N)N)C(N)=O [SEQ ID NO: 6, Ac-crrrrrr-NH2] |  | below the detection limit or essentially zero |  |  | 2.7 fold | ~80% | 80-90% | ~40% | over 24 hours | 40-60% | increased efficacy as well as the duration of action | ~40% | at least four hours | 4% | 0% | 3% | 7 fold | returned to baseline levels 15 minutes later | ~4 h
